From patent US20240166652A1, “MODULATORS OF THE INTEGRATED STRESS PATHWAY” (Calico Life Sciences LLC, priority 2017, published 2024)

System: ATF4 luciferase reporter in HEK293T cells
Experiment: ATF4-Luc assay (ATF4 luciferase reporter, tunicamycin-treated HEK293T cells)
Assay type: cell-based, human
Settings: Homo sapiens, HEK-293T; HEK293T cells carrying the ATF4 luciferase reporter, 1 μg/mL tunicamycin, 7 hours

Row | SMILES | EC50
1 | O=C(CCCc1cccc(Cl)c1)NC12CC(NC(=O)COc3ccc(Cl)c(F)c3)(C1)C2 [Compound 543, N-{3-[2-(4-chloro-3-fluorophenoxy)acetamido]bicyclo[1.1.1]pentan-1-yl}-4-(3-chlorophenyl)butanamide] | 50 to 250 nM
2 | COC(=O)[C@H]1CC2(NC(=O)COc3ccc(Cl)c(F)c3)CCC1(NC(=O)COc1ccc(Cl)c(F)c1)CC2 [Compound 562, methyl (2S)-1,4-bis[2-(4-chloro-3-fluorophenoxy)acetamido]bicyclo[2.2.2]octane-2-carboxylate] | < 10 nM
3 | O=C(COc1ccc2c(c1)OC(F)(F)O2)NC12CCC(NC(=O)COc3ccc(OC(F)(F)F)cc3)(CC1)[C@@H](O)C2 [Compound 786, 2-[(2,2-difluoro-2H-1,3-benzodioxol-5-yl)oxy]-N-[(3S)-3-hydroxy-4-{2-[4-(trifluoromethoxy)phenoxy]acetamido}bicyclo[2.2.2]octan-1-yl]acetamide] | < 10 nM
4 | O=C(COc1ncc(C(F)(F)F)cn1)NC12CCC(NC(=O)COc3ccc(Cl)c(F)c3)(CC1)[C@@H](O)C2 [Compound 630, 2-(4-chloro-3-fluorophenoxy)-N-[(2S)-2-hydroxy-4-(2-{[5-(trifluoromethyl)pyrimidin-2-yl]oxy}acetamido)bicyclo[2.2.2]octan-1-yl]acetamide] | < 10 nM
5 | O=C(COc1cccc(OC(F)F)c1)NC12CC(NC(=O)COc3ccc(Cl)c(F)c3)(C1)C2 [Compound 396, 2-(4-chloro-3-fluorophenoxy)-N-(3-{2-[3-(difluoromethoxy)phenoxy]acetamido}bicyclo[1.1.1]pentan-1-yl)acetamide] | 10 to 50 nM
6 | Cc1cc(C)cc(OCC(=O)NC23CCC(NC(=O)COc4ccc(Cl)c(F)c4)(CC2)C[C@@H]3O)c1 [Compound 502, 2-(4-chloro-3-fluorophenoxy)-N-{(3S)-4-[2-(3,5-dimethylphenoxy)acetamido]-3-hydroxybicyclo[2.2.2]octan-1-yl}acetamide] | 50 to 250 nM
7 | O=C(COc1ccc(Cl)cc1)NC12CC(NC(=O)COc3ccc(F)c(Cl)c3)(C1)C2 [Compound 546, 2-(3-chloro-4-fluorophenoxy)-N-{3-[2-(4-chlorophenoxy)acetamido]bicyclo[1.1.1]pentan-1-yl}acetamide] | < 10 nM
8 | O=C(COc1ccc(Cl)c(F)c1)NC12CCC(NC(=O)COc3ccc(Cl)c(F)c3)(CC1)C(NCC(F)(F)F)C2 (stereo not shown) [Compound 714, N,N′-{2-[(2,2,2-trifluoroethyl)amino]bicyclo[2.2.2]octane-1,4-diyl}bis[2-(4-chloro-3-fluorophenoxy)acetamide]] | 10 to 50 nM
9 | O=C(COc1ccc(Cl)c(F)c1)NC12CC(NC(=O)COc3cnc(Cl)c(C(=O)O)c3)(C1)C2 [Compound 231, 2-chloro-5-[2-({3-[2-(4-chloro-3-fluorophenoxy)acetamido]-bicyclo[1.1.1]pentan-1-yl}amino)-2-oxoethoxy]pyridine-3-carboxylic Acid] | > 2000 nM
10 | O=C(COc1ccc(C(F)(F)F)nc1)NC12CCC(NC(=O)COc3ccc(Cl)c(Cl)c3)(CC1)[C@@H](O)C2 [Compound 583, 2-(3,4-dichlorophenoxy)-N-[(2S)-2-hydroxy-4-(2-{[6-(trifluoromethyl)pyridin-3-yl]oxy}acetamido)bicyclo[2.2.2]octan-1-yl]acetamide] | < 10 nM
11 | Cc1ccc(OCC(=O)NC23CCC(NC(=O)COc4ccc(Cl)c(F)c4)(CC2)[C@@H](O)C3)cc1C [Compound 471, 2-(4-chloro-3-fluorophenoxy)-N-{(2S)-4-[2-(3,4-dimethylphenoxy)acetamido]-2-hydroxybicyclo[2.2.2]octan-1-yl}acetamide] | < 10 nM
12 | Cc1ccc(OCC(=O)NC23CC(NC(=O)COc4ccc(Cl)c(F)c4)(C2)C3)cc1 [Compound 460, 2-(4-chloro-3-fluorophenoxy)-N-{3-[2-(4-methylphenoxy)acetamido]bicyclo[1.1.1]pentan-1-yl}acetamide] | 10 to 50 nM
13 | O=C(COc1ccc(Cl)c(F)c1)NC12CC(NS(=O)(=O)Cc3cc(F)cc(F)c3)(C1)C2 [Compound 484, 2-(4-chloro-3-fluorophenoxy)-N-(3-{[(3,5-difluorophenyl)methanesulfonyl]amino}bicyclo[1.1.1]pentan-1-yl)acetamide] | > 2000 nM
14 | Cc1cc(Cl)ncc1OCC(=O)NC12CC(NC(=O)COc3ccc(Cl)c(F)c3)(C1)C2 [Compound 243, 2-(4-chloro-3-fluorophenoxy)-N-(3-{2-[(6-chloro-4-methylpyridin-3-yl)oxy]acetamido}bicyclo[1.1.1]pentan-1-yl)acetamide] | 250 to 500 nM
15 | CC(C)(C)c1ccc(OCC(=O)NC23CC(NC(=O)COc4ccc(Cl)c(F)c4)(C2)C3)cn1 [Compound 221, 2-[(6-tert-butylpyridin-3-yl)oxy]-N-{3-[2-(4-chloro-3-fluorophenoxy)acetamido]bicyclo[1.1.1]pentan-1-yl}acetamide] | 500 to 2000 nM
16 | O=C(COc1ccc(Cl)c(F)c1)NC12CCC(NC(=O)Cc3ccncc3)(CC1)C(O)C2 (stereo not shown) [Compound 328, 2-(4-chloro-3-fluorophenoxy)-N-{3-hydroxy-4-[2-(pyridin-4-yl)acetamido]bicyclo[2.2.2]octan-1-yl}acetamide] | > 2000 nM

Row | SMILES | EC50
17 | N#Cc1ccc(CNC23CCC(NC(=O)COc4ccc(Cl)c(F)c4)(CC2)CC3O)cc1 (stereo not shown) [Compound 343, 2-(4-chloro-3-fluorophenoxy)-N-(4-{[(4-cyanophenyl)methyl]amino}-3-hydroxybicyclo[2.2.2]octan-1-yl)acetamide] | 50 to 250 nM
18 | O=C(CCOCc1cccc(Cl)c1)NC12CC(NC(=O)COc3ccc(Cl)c(Cl)c3)(C1)C2 [Compound 167, 3-[(3-chlorophenyl)methoxy]-N-{3-[2-(3,4-dichlorophenoxy)acetamido]-bicyclo[1.1.1]pentan-1-yl}propanamide] | 500 to 2000 nM
19 | O=C(COc1ccc(Cl)c(F)c1)NC12CC(N(CCO)C(=O)COc3ccc(Cl)c(F)c3)(C1)C2 [Compound 190, 2-(4-chloro-3-fluorophenoxy)-N-{3-[2-(4-chloro-3-fluorophenoxy)acetamido]-bicyclo[1.1.1]pentan-1-yl}-N-(2-hydroxyethyl)acetamide] | 500 to 2000 nM
20 | Cc1cnc(OCC(=O)NC23CCC(NC(=O)COc4ccc(Cl)c(F)c4)(CC2)[C@@H](O)C3)s1 [Compound 575, 2-(4-chloro-3-fluorophenoxy)-N-[(2S)-2-hydroxy-4-{2-[(5-methyl-1,3-thiazol-2-yl)oxy]acetamido}bicyclo[2.2.2]octan-1-yl]acetamide] | > 2000 nM
21 | O=C(COc1ccc(Cl)c(F)c1)NC12CCC(NC(=O)COc3ccc(OC(F)(F)F)cc3)(CC1)[C@@H](O)C2 [Compound 505, 2-(4-chloro-3-fluorophenoxy)-N-[(3S)-3-hydroxy-4-{2-[4-(trifluoromethoxy)phenoxy]acetamido}bicyclo[2.2.2]octan-1-yl] acetamide] | < 10 nM
22 | COc1cc(OC)nc(OCC(=O)NC23CCC(NC(=O)COc4ccc(Cl)c(F)c4)(CC2)C[C@@H]3O)n1 [Compound 498, 2-(4-chloro-3-fluorophenoxy)-N-[(3S)-4-{2-[(4,6-dimethoxypyrimidin-2-yl)oxy]acetamido}-3-hydroxybicyclo[2.2.2]octan-1-yl]acetamide] | 250 to 500 nM
23 | O=C(CNC(=O)OCc1ccccc1)NC12CC(NC(=O)COc3ccc(Cl)c(F)c3)(C1)C2 [Compound 304, benzyl [2-({3-[2-(4-chloro-3-fluorophenoxy)acetamido]bicyclo[1.1.1]pentan-1-yl}amino)-2-oxoethyl]carbamate] | 500 to 2000 nM
24 | Cc1cc(OCC(=O)NC23CC(NC(=O)COc4ccc(Cl)c(F)c4)(C2)C3)cc(C)n1 [Compound 220, 2-(4-chloro-3-fluorophenoxy)-N-(3-{2-[(2,6-dimethylpyridin-4-yl)oxy]acetamido}bicyclo[1.1.1]pentan-1-yl)acetamide] | 500 to 2000 nM
25 | Cc1ccc(CCOCC(=O)NC23CC(NC(=O)COc4ccc(Cl)c(F)c4)(C2)C3)cc1 [Compound 137, 2-(4-chloro-3-fluorophenoxy)-N-(3-{2-[2-(4-methylphenyl)ethoxy]acetamido}-bicyclo[1.1.1]pentan-1-yl)acetamide] | 500 to 2000 nM
26 | O=C(COc1ccc(Cl)c(F)c1)NC12CCC(NC(=O)COc3ccc(C(F)(F)F)cc3)(CC1)[C@@H](O)C2 [Compound 507, 2-(4-chloro-3-fluorophenoxy)-N-[(3S)-3-hydroxy-4-{2-[4-(trifluoromethyl)phenoxy]acetamido}bicyclo[2.2.2]octan-1-yl]acetamide] | < 10 nM
27 | COc1cc(OCC(=O)NC23CCC(NC(=O)COc4ccc(Cl)c(F)c4)(CC2)[C@@H](O)C3)ncn1 [Compound 666, 2-(4-chloro-3-fluorophenoxy)-N-[(2S)-2-hydroxy-4-{2-[(6-methoxypyrimidin-4-yl)oxy]acetamido}bicyclo[2.2.2]octan-1-yl]acetamide] | 50 to 250 nM
28 | O=C(COc1ccc(OC(F)(F)F)cc1)NC12CC(NC(=O)COc3ccc(Cl)c(F)c3)(C1)C2 [Compound 393, 2-(4-chloro-3-fluorophenoxy)-N-(3-{2-[4-(trifluoromethoxy)phenoxy]acetamido}bicyclo[1.1.1]pentan-1-yl)acetamide] | < 10 nM
29 | O=C(COc1ccc(Cl)c(F)c1)N[C@@H]1C[C@@H]2C[C@H]1C[C@H]2NC(=O)COc1ccc(Cl)c(F)c1 (racemic) [Compound 628, rac-N,N′-[(1R,2S,4R,5S)-bicyclo[2.2.1]heptane-2,5-diyl]bis[2-(4-chloro-3-fluorophenoxy)acetamide]] | < 10 nM
30 | CC(=O)N(CC(=O)NC12CC(NC(=O)COc3ccc(Cl)c(F)c3)(C1)C2)c1ccc(Cl)cc1 [Compound 205, M-acetyl-N-{3-[2-(4-chloro-3-fluorophenoxy)acetamido]bicyclo-[1.1.1]pentan-1-yl}-N^2-(4-chlorophenyl)glycinamide] | > 2000 nM
31 | CN(CC(=O)NC12CCC(NC(=O)COc3ccc(Cl)c(F)c3)(CC1)C[C@@H]2O)c1ccc(Cl)cc1 [Compound 656, 2-(4-chloro-3-fluorophenoxy)-N-[(3S)-4-{2-[(4-chlorophenyl)(methyl)amino]acetamido}-3-hydroxybicyclo[2.2.2]octan-1-yl]acetamide] | 10 to 50 nM
